Square brackets hold non-standard residues; d marks the D form. βAla = NCCC(=O)O
Key:
[1] = test system: primary murine proximal tubule epithelial cells (PTEC); assay: MTT cell survival assay of kidney cells after ischemic stress in vitro induced by metabolic inhibitors; assay type: cell-based; conditions: for Cell survival data (ranking of peptides): normalized to negative control GFP fragment, FIG. 14; for Cytoprotective effects during ischemic stress in vitro: peptides 100 nM, metabolic inhibitors 60 min, recovery 6 hr, vs GFP negative control, FIG. 13
Protocol: FIG. 2 depicts an NPMB1 Alanine Scan. Relative kidney cell survival rate after 70 min ischemic stress in vitro induced by metabolic inhibitors in the presence of NPMB1 (control) vs. 19 different NPMBx polypeptides with single alanine substitutions (2 additional NPMB1 alanine residues were not substituted). Residue numbers (x axis) reflect Bax sequence that binds human NPM1; Survival data are normalized to NPMB1; post-ischemic kidney cell survival is shown in tertiles: (left-most group: 5-40% survival; middle-group: 55-70% and third group: 80-95%); n=3 separate experiments.
Relative kidney cell survival rate after 70 min ischemic stress in vitro induced by transient exposure to metabolic inhibitors in the presence of NPMB polypeptides (Agents 2, 5, 7, 14 that reflect alanine scan polypeptides A173, A187, A179, A176) vs. a non—specific polypeptide (GFP fragment). Survival data normalized to baseline (no stress); *P<0.01vs. baseline; t P<0.05 vs. stress; data represent 3 separate experiments; error bars represent mean+SD.
FIGS. 13A-13B depict the cytoprotective effects of select therapeutic peptides during ischemic stress in vitro. Primary murine proximal tubule epithelial cells (PTEC) were transiently exposed to metabolic inhibitors for 60 min and allowed to recover for 6 hr. to simulate ischemia in vivo; MTT assay estimated cell survival. “Control” (open bars); is a GFP fragment of similar size to the therapeutic peptides was used a negative control; NPMB1 (prototype) serves as a positive control. […] All peptides contained the nuclear localizing sequence (NLS) to enhance peptide delivery to the kidney, a beta linker and both carboxy-and amino terminal modifications to reduce susceptibility to protease digestion; data are mean+standard error; n=3 separate experiments. Figure discloses SEQ ID NOS 139, 134-135, 128, 127, and 138, respectively, in order of appearance.
Structure activity relationships of NPMB1 derivatives were determined through alanine scanning In these studies, 19 polypeptides were produced using methods shown in FIGS. 8-11 and their effect of kidney cell survival after ischemic stress was characterized using the MTT cell survival assay. Based on determination of relative kidney cell survival rate, polypeptides were grouped according to activity as shown in FIG. 2 (orange: 5-40% survival; blue 55-70% survival, or green 80-95% survival).

human NPM1 = human NPM1 (Homo sapiens, UniProt P06748); assay: Surface plasmon resonance (SPR) binding of peptides to human NPM1; conditions: human NPM1, FIG. 14
human NPM1, sequence (P06748 whole entry, the tested form may be a part): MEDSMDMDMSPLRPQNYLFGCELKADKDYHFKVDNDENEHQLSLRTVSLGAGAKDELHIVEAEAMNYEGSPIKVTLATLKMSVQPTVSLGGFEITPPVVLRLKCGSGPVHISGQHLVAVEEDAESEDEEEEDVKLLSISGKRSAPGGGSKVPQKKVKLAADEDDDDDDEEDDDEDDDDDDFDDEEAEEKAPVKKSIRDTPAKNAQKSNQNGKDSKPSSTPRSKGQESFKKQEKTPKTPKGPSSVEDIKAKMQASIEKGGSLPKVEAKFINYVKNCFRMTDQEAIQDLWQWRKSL
Excerpt: FIG. 14 depicts a table of the association rate, dissociation rate and the calculated equilibrium dissociation constant for 10 representative therapeutic peptides as measured by Surface Plasmon Resonance (SPR). Mean rates are derived from at least three different peptide concentrations at levels below saturation with human NPM1. Cell survival data are normalized to the negative control (a GFP fragment of similar size to the therapeutic peptides) and represent the mean of at least 3 separate experiments.
FIG. 15 depicts an on-off rate map. A graph of the off-rate (x-axis) and on-rate (y-axis) of 10 representative peptides from different sets of modified peptides. Diagonal dash-lines represent the equilibrium dissociation constant (KD) estimates the NPM1 binding affinity for each peptide based on the distance to the lines.
The 3D helical wheel projection scan predicted that 5 of 6 peptide residues (except for L185) with intermediate effects on post-ischemic cell survival cluster in a single surface domain (FIGS. 6 and 7). These surface residues are likely regulating the binding affinity Kd) between the therapeutic peptide and NPM1, the human target protein. Since binding affinity (Kd) between the peptide drug and NPMB1 partly predicts its efficacy, a high throughput, quantitative surface plasmon resonance (SPR) assay was developed.
SPR was measured for 10 novel polypeptides with select single or double mutations. Both the measured peptide “on” and “off” rates for binding human NPM1 markedly differed (FIG. 15). […] For most modified peptides, greater protection against ischemic stress positively correlated with a low Kd. […] Overall, SPR data combined with cell survival data adequately informs the selection of therapeutic peptides based on the quantifiable effects of R group modifications on these parameters. The combination of SPR binding affinity and cell survival data in vitro effectively rank orders therapeutic peptides for in vivo testing in animals.

[2] = target: human nucleophosmin (NPM1) (Homo sapiens, UniProt P06748); conditions: previously discovered by the applicant's team; cited from earlier work
human nucleophosmin (NPM1) (Homo sapiens, UniProt P06748), sequence (P06748 whole entry): as the sequence (P06748 whole entry, the tested form may be a part) above

[3] = test system: human nucleophosmin (NPM1); conditions: in vivo (Wang 2019); cited from earlier work
[4] = test system: in vivo mouse model of ischemic AKI; conditions: J Am Soc Nephrol 30: 50-62, 2019; cited from earlier work
[5] = test system: primary murine proximal tubule epithelial cells (PTEC); conditions: J Am Soc Nephrol 30: 50-62, 2019; cited from earlier work

Row | Substance | Cell survival data (ranking of peptides) [1] | Cytoprotective effects during ischemic stress in vitro [1] | Kd / NPM1 binding affinity in words (human NPM1) | Binding to human nucleophosmin (NPM1) [2] | NPM/Bax protein interaction [3] | Kidney cell death in an in vivo mouse model of ischemic AKI [4] | Kidney cell death in a cell-based assay [5] | Degree of cytoprotection during ischemic stress ([1]; alanine scan and pro-helical mutations)
1 | Ac-PKKKRKV-Bala-TATIAVAGVLTASLTIWKKMG-OMe [NPMB1-X-012] | most effective | most robust protection | relatively low Kd values |  |  |  |  | 
2 | Ac-PKKKRKV-Bala-TATLFVAGVLTASLTIWKKMG-OMe [NPMB1-X-013] | most effective | most robust protection | relatively low Kd values |  |  |  |  | 
3 | Ac-PKKKRKV-Bala-TVTIFVAGVLTASLTIWKKMG-OH [NPMB1, prototype peptide, positive control] |  |  |  | binds | competitively inhibits | inhibits kidney cell death | inhibits kidney cell death | 
4 | Ac-PKKKRKV-Bala-TVTLFVAGVLTASLTIWKKMG-OMe [NPMB1-V-001] | most effective |  | relatively low NPM1 binding affinity |  |  |  |  | highly effective
5 | Ac-RREEERREEERREEEK-Bala-TVTIFVAGVLTASLTIWKKMG-OH (Ac-RREEERREEERREEEK[βAla]TVTIFVAGVLTASLTIWKKMG-OH; SMILES CC[C@H](C)[C@H](NC(=O)[C@@H](NC(=O)[C@H](CC(C)C)NC(=O)[C@H](CO)NC(=O)[C@H](C)NC(=O)[C@@H](NC(=O)[C@H](CC(C)C)NC(=O)[C@@H](NC(=O)CNC(=O)[C@H](C)NC(=O)[C@@H](NC(=O)[C@H](Cc1ccccc1)NC(=O)[C@@H](NC(=O)[C@@H](NC(=O)[C@@H](NC(=O)[C@@H](NC(=O)CCNC(=O)[C@H](CCCCN)NC(=O)[C@H](CCC(=O)O)NC(=O)[C@H](CCC(=O)O)NC(=O)[C@H](CCC(=O)O)NC(=O)[C@H](CCCNC(=N)N)NC(=O)[C@H](CCCNC(=N)N)NC(=O)[C@H](CCC(=O)O)NC(=O)[C@H](CCC(=O)O)NC(=O)[C@H](CCC(=O)O)NC(=O)[C@H](CCCNC(=N)N)NC(=O)[C@H](CCCNC(=N)N)NC(=O)[C@H](CCC(=O)O)NC(=O)[C@H](CCC(=O)O)NC(=O)[C@H](CCC(=O)O)NC(=O)[C@H](CCCNC(=N)N)NC(=O)[C@H](CCCNC(=N)N)NC(C)=O)[C@@H](C)O)C(C)C)[C@@H](C)O)[C@@H](C)CC)C(C)C)C(C)C)[C@@H](C)O)[C@@H](C)O)C(=O)N[C@@H](Cc1c[nH]c2ccccc12)C(=O)N[C@@H](CCCCN)C(=O)N[C@@H](CCCCN)C(=O)N[C@@H](CCSC)C(=O)NCC(=O)O) [NPMB1-I-011] |  |  | relatively low Kd |  |  |  |  | 
